# In the NIST ThermoML archive (doi:10.1016/j.fluid.2012.10.002):
# Values joined by “and” are separate entries in the source; they are usually repeats but may differ in a detail not shown here. Equal entries are not always repeated. Numbers after ± are expanded uncertainties.
# Assay: xn = mol fraction of the nth substance listed
# Conditions: Gas, Frequency=0.05 MHz, Linear variable-path acoustic interferometer
smiles,measurement,setting,value
FC(F)(F)C(F)(F)F [hexafluoroethane] + FC(F)(F)C(F)(F)C(F)(F)F,speed of sound,"261.1 K, 183 kPa, x1 = 1",127.95 ± 0.49 m/s
same,speed of sound,"263.74 K, 185 kPa, x1 = 1",128.64 ± 0.49 m/s
same,speed of sound,"266.3 K, 186 kPa, x1 = 1",129.3 ± 0.49 m/s
same,speed of sound,"268.82 K, 188 kPa, x1 = 1",129.95 ± 0.5 m/s
same,speed of sound,"270.22 K, 189 kPa, x1 = 1",130.3 ± 0.5 m/s
same,speed of sound,"271.26 K, 190 kPa, x1 = 1",130.57 ± 0.49 m/s
same,speed of sound,"273.89 K, 192 kPa, x1 = 1",131.26 ± 0.49 m/s
same,speed of sound,"276.33 K, 194 kPa, x1 = 1",131.87 ± 0.49 m/s
same,speed of sound,"278.84 K, 195 kPa, x1 = 1",132.51 ± 0.49 m/s
same,speed of sound,"281.3 K, 197 kPa, x1 = 1",133.11 ± 0.49 m/s
same,speed of sound,"281.31 K, 197 kPa, x1 = 1",133.1 ± 0.49 m/s
same,speed of sound,"283.84 K, 199 kPa, x1 = 1",133.77 ± 0.49 m/s
same,speed of sound,"286.31 K, 201 kPa, x1 = 1",134.35 ± 0.49 m/s
same,speed of sound,"288.82 K, 203 kPa, x1 = 1",135 ± 0.49 m/s
same,speed of sound,"293.64 K, 206 kPa, x1 = 1",136.18 ± 0.51 m/s
same,speed of sound,"296.91 K, 208 kPa, x1 = 1",136.93 ± 0.52 m/s
same,speed of sound,"301.03 K, 212 kPa, x1 = 1",137.94 ± 0.5 m/s
same,speed of sound,"303.69 K, 213 kPa, x1 = 1",138.56 ± 0.5 m/s
same,speed of sound,"306.24 K, 215 kPa, x1 = 1",139.22 ± 0.52 m/s
same,speed of sound,"308.82 K, 217 kPa, x1 = 1",139.82 ± 0.52 m/s
same,speed of sound,"311.28 K, 219 kPa, x1 = 1",140.41 ± 0.51 m/s
same,speed of sound,"313.79 K, 221 kPa, x1 = 1",141 ± 0.51 m/s
same,speed of sound,"318.78 K, 224 kPa, x1 = 1",142.17 ± 0.5 m/s
same,speed of sound,"323.78 K, 228 kPa, x1 = 1",143.37 ± 0.5 m/s
FC(F)(F)C(F)(F)C(F)(F)F [octafluoropropane] + FC(F)(F)C(F)(F)F,speed of sound,"258.87 K, 181 kPa, x2 = 0",104.06 ± 0.47 m/s
same,speed of sound,"261.04 K, 214 kPa, x2 = 0.146",106.6 ± 0.47 m/s
same,speed of sound,"261.17 K, 183 kPa, x2 = 0",104.66 ± 0.47 m/s
same,speed of sound,"263.69 K, 217 kPa, x2 = 0.146",107.31 ± 0.47 m/s
same,speed of sound,"266.22 K, 219 kPa, x2 = 0.146",107.96 ± 0.47 m/s
same,speed of sound,"268.73 K, 189 kPa, x2 = 0",106.57 ± 0.47 m/s
same,speed of sound,"268.76 K, 222 kPa, x2 = 0.146",108.61 ± 0.47 m/s
same,speed of sound,"270.28 K, 190 kPa, x2 = 0",106.94 ± 0.47 m/s
same,speed of sound,"271.52 K, 214 kPa, x2 = 0.11",108.77 ± 0.47 m/s
same,speed of sound,"271.54 K, 224 kPa, x2 = 0.146",109.31 ± 0.47 m/s
same,speed of sound,"273.74 K, 193 kPa, x2 = 0",107.79 ± 0.47 m/s
same,speed of sound,"273.82 K, 227 kPa, x2 = 0.146",109.89 ± 0.47 m/s
same,speed of sound,"273.86 K, 202 kPa, x2 = 0.048",108.5 ± 0.47 m/s
same,speed of sound,"273.88 K, 216 kPa, x2 = 0.11",109.36 ± 0.47 m/s
same,speed of sound,"273.9 K, 216 kPa, x2 = 0.11",109.35 ± 0.47 m/s
same,speed of sound,"276.23 K, 195 kPa, x2 = 0",108.4 ± 0.73 m/s
same,speed of sound,"276.3 K, 219 kPa, x2 = 0.11",109.94 ± 0.47 m/s
same,speed of sound,"276.35 K, 229 kPa, x2 = 0.146",110.52 ± 0.47 m/s
same,speed of sound,"278.61 K, 206 kPa, x2 = 0.048",109.65 ± 0.47 m/s
same,speed of sound,"278.75 K, 197 kPa, x2 = 0",109 ± 0.73 m/s
same,speed of sound,"279.06 K, 231 kPa, x2 = 0.146",111.21 ± 0.47 m/s
same,speed of sound,"281.01 K, 208 kPa, x2 = 0.048",110.21 ± 0.47 m/s
same,speed of sound,"281.09 K, 223 kPa, x2 = 0.11",111.13 ± 0.47 m/s
same,speed of sound,"281.24 K, 199 kPa, x2 = 0",109.59 ± 0.57 m/s
same,speed of sound,"281.35 K, 233 kPa, x2 = 0.146",111.76 ± 0.47 m/s
same,speed of sound,"281.94 K, 224 kPa, x2 = 0.11",111.33 ± 0.47 m/s
same,speed of sound,"283.42 K, 225 kPa, x2 = 0.11",111.69 ± 0.47 m/s
same,speed of sound,"283.48 K, 210 kPa, x2 = 0.048",110.83 ± 0.47 m/s
same,speed of sound,"283.81 K, 201 kPa, x2 = 0",110.19 ± 0.57 m/s
same,speed of sound,"284.05 K, 236 kPa, x2 = 0.146",112.44 ± 0.48 m/s
same,speed of sound,"285.85 K, 212 kPa, x2 = 0.048",111.38 ± 0.48 m/s
same,speed of sound,"285.87 K, 212 kPa, x2 = 0.048",111.39 ± 0.48 m/s
same,speed of sound,"285.92 K, 227 kPa, x2 = 0.11",112.29 ± 0.48 m/s
same,speed of sound,"286.31 K, 203 kPa, x2 = 0",110.78 ± 0.48 m/s
same,speed of sound,"286.39 K, 238 kPa, x2 = 0.146",112.99 ± 0.48 m/s
same,speed of sound,"288.79 K, 205 kPa, x2 = 0",111.35 ± 2 m/s
same,speed of sound,"288.96 K, 241 kPa, x2 = 0.146",113.61 ± 0.48 m/s
same,speed of sound,"290.79 K, 231 kPa, x2 = 0.11",113.46 ± 0.48 m/s
same,speed of sound,"291.2 K, 207 kPa, x2 = 0",111.92 ± 0.5 m/s
same,speed of sound,"291.22 K, 217 kPa, x2 = 0.048",112.64 ± 0.48 m/s
same,speed of sound,"291.37 K, 243 kPa, x2 = 0.146",114.18 ± 0.48 m/s
same,speed of sound,"293.19 K, 218 kPa, x2 = 0.048",113.11 ± 0.48 m/s
same,speed of sound,"293.86 K, 245 kPa, x2 = 0.146",114.77 ± 0.48 m/s
same,speed of sound,"294.01 K, 245 kPa, x2 = 0.146",114.81 ± 0.48 m/s
same,speed of sound,"294.82 K, 246 kPa, x2 = 0.146",115.01 ± 0.48 m/s
same,speed of sound,"294.96 K, 235 kPa, x2 = 0.11",114.43 ± 0.48 m/s
same,speed of sound,"295.16 K, 235 kPa, x2 = 0.11",114.49 ± 0.48 m/s
same,speed of sound,"295.22 K, 220 kPa, x2 = 0.048",113.57 ± 0.48 m/s
same,speed of sound,"295.26 K, 210 kPa, x2 = 0",112.82 ± 0.51 m/s
same,speed of sound,"295.26 K, 220 kPa, x2 = 0.048",113.58 ± 0.48 m/s
same,speed of sound,"295.28 K, 220 kPa, x2 = 0.048",113.59 ± 0.48 m/s
same,speed of sound,"296.26 K, 247 kPa, x2 = 0.146",115.34 ± 0.48 m/s
same,speed of sound,"297.13 K, 248 kPa, x2 = 0.146",115.54 ± 0.48 m/s and 115.55 ± 0.48 m/s
same,speed of sound,"298.69 K, 250 kPa, x2 = 0.146",115.9 ± 0.48 m/s
same,speed of sound,"300.46 K, 224 kPa, x2 = 0.048",114.77 ± 0.48 m/s
same,speed of sound,"301.15 K, 215 kPa, x2 = 0",114.22 ± 0.48 m/s
same,speed of sound,"301.17 K, 252 kPa, x2 = 0.146",116.47 ± 0.48 m/s
same,speed of sound,"302.82 K, 226 kPa, x2 = 0.048",115.32 ± 0.48 m/s
same,speed of sound,"302.91 K, 242 kPa, x2 = 0.11",116.26 ± 0.48 m/s
same,speed of sound,"303.66 K, 254 kPa, x2 = 0.146",117.06 ± 0.48 m/s
same,speed of sound,"303.67 K, 216 kPa, x2 = 0",114.79 ± 0.48 m/s
same,speed of sound,"303.69 K, 217 kPa, x2 = 0",114.78 ± 0.48 m/s
same,speed of sound,"306.23 K, 219 kPa, x2 = 0",115.37 ± 0.54 m/s
same,speed of sound,"307.6 K, 230 kPa, x2 = 0.048",116.4 ± 0.48 m/s
same,speed of sound,"308.64 K, 259 kPa, x2 = 0.146",118.2 ± 0.48 m/s
same,speed of sound,"311.15 K, 261 kPa, x2 = 0.146",118.77 ± 0.49 m/s
same,speed of sound,"311.27 K, 223 kPa, x2 = 0",116.48 ± 0.48 m/s
same,speed of sound,"312.3 K, 234 kPa, x2 = 0.048",117.45 ± 0.48 m/s
same,speed of sound,"312.47 K, 251 kPa, x2 = 0.11",118.45 ± 0.48 m/s
same,speed of sound,"313.65 K, 264 kPa, x2 = 0.146",119.34 ± 0.48 m/s
same,speed of sound,"314.99 K, 253 kPa, x2 = 0.11",119.04 ± 0.48 m/s
same,speed of sound,"315.91 K, 237 kPa, x2 = 0.048",118.26 ± 0.48 m/s
same,speed of sound,"316.18 K, 266 kPa, x2 = 0.146",119.91 ± 0.48 m/s
same,speed of sound,"316.26 K, 226 kPa, x2 = 0",117.58 ± 0.48 m/s
same,speed of sound,"317.39 K, 255 kPa, x2 = 0.11",119.56 ± 0.48 m/s
same,speed of sound,"318.68 K, 268 kPa, x2 = 0.146",120.47 ± 0.48 m/s
same,speed of sound,"319.74 K, 257 kPa, x2 = 0.11",120.07 ± 0.49 m/s
same,speed of sound,"321.23 K, 230 kPa, x2 = 0",118.64 ± 0.48 m/s
same,speed of sound,"322.15 K, 259 kPa, x2 = 0.11",120.6 ± 0.48 m/s
same,speed of sound,"323.51 K, 273 kPa, x2 = 0.146",121.55 ± 0.48 m/s
same,speed of sound,"323.74 K, 232 kPa, x2 = 0",119.18 ± 0.48 m/s
